According to US11630102B2, “Composition and method for modulating fibroblast growth factor receptor 3 activation” (ACADEMIA SINICA, priority 2017, dated 2023):
Entries after “also recorded” stand apart in the source; their conditions may differ. Like-named read-outs stand apart in the source and are kept apart here.

Tests used:
TDI FGFR3 [1] = target: T1, TDI FGFR3 (Homo sapiens, UniProt P22607, Y373C); assay: cell-based translocation assay (ring spot count, high-content imaging); details: for inhibition of FGFR3 activation (in words): cells stably expressing SH2(SH2B)-RrGFP and TDI FGFR3
T1 sequence (P22607 23-806 Y373C): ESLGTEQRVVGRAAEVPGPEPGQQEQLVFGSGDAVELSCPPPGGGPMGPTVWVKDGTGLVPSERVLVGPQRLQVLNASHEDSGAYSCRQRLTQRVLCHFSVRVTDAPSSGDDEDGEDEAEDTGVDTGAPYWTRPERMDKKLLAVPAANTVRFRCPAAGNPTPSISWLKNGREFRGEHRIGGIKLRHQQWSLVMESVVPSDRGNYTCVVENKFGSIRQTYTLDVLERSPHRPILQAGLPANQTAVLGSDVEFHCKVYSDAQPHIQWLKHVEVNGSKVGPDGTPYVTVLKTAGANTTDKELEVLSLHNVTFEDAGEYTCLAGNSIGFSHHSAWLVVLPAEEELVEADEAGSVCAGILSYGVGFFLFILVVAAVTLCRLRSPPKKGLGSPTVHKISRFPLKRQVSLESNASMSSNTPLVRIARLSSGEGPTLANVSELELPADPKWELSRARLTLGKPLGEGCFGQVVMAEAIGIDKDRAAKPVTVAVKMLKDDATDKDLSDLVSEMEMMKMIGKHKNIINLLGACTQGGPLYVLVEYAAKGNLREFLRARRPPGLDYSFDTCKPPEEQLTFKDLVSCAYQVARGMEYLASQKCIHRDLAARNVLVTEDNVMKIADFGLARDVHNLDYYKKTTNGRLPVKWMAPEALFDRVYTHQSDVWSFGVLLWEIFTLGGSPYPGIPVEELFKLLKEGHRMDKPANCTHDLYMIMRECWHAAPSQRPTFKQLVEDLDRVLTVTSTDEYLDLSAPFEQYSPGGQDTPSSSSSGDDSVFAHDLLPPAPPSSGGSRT
Method: (§2) PKC412 was prepared as a 6% (w/w) stock in DMSO. Live-cell imaging was performed at 37° C. under humidified conditions in a 5% CO2 incubator.
(§3) For high-content screening, all steps of sample-plate preparation, including compound treatment, fixation and plate washing, were fully automated and were performed using a Bio-Tek EL405uv system (Bio-Tek Instruments, Inc., Winooski, Vt., USA). U2OS cells stably expressing TDI FGFR3 and SI-12-RrGFP were seeded at a density of 4×10^3 cells/well in black 96-well Packard Viewplates, incubated overnight in complete medium at 37° C. in a CO2 incubator, and then transferred to 100 μl serum-free medium containing PKC412 or plant extract. The final DMSO concentration was 1%. After incubating for 1 hour at 37° C. in a CO2 incubator, cells were fixed with 4.5% formaldehyde and cell nuclei were labeled with a 2 μg/ml Hoechst stain solution (Sigma-Aldrich).
(§4) Cell images were automatically obtained using an ArrayScan VTI HCS Reader (Cellomics, Pittsburgh, Pa., USA). Filter sets appropriate for detecting the two fluorophores were used, and a 20×0.4 numerical aperture microscope objective was used for imaging. The Compartmental Analysis BioApplication (Cellomics) was used to analyze the images after optimization of the application's protocol settings. For these analyses, the Compartmental Analysis used the Hoechst-labeled nuclei to identify individual cells, and the nucleus (Circle) and cytoplasmic area (Ring) of the cells were defined by parameter settings in the software. The GFP spots in the Ring region were defined and the spot numbers (Ring Spot Count) and spot intensity (Ring Spot Intensity) were quantified by the software.

[2] = solubility of Pa derivatives compared to Pa; assay type: physicochemical
KMS-11 cells = assay: KMS-11 cell proliferation assay (WST-1); assay type: cell-based, human; details: FGFR3-dependent growth (Y373C FGFR3)
Method: Cell proliferation was determined by a colorimetric assay of cell viability based on the cleavage of the tetrazolium salt WST-1 (Roche) by mitochondrial dehydrogenases. Cells were grown in serum-free conditions for 24 h and then were seeded in 96-well plates at a density of 50,000 cells/well in RPMI. Cells were incubated with 1 nM aFGF and 50 μg/ml heparin and various doses of plant extracts in 200 μl RPMI at a final concentration of 1% DMSO. Plates were incubated for 72 h at 37° C., 5% CO2. The WST-1 assay was performed according to the manufacturer's instructions. The absorbance of the formazan dye formed, which correlates with the number of metabolically active cells in the culture, was measured at 450 nm and 690 nm 1 h after adding the reagent. Each experimental condition was performed in triplicate.
The effects of hit 4, hit 4-1, and hit 4-2 were examined on the growth of human myeloma cell line KMS-11 […] expressing TDI FGFR3. KMS-11 cells were stimulated with aFGF/heparin and incubated with DMSO negative control, PKC412 positive control, or 10 μg/ml and 100 μg/ml doses of each tested plant extract. Cell growth was measured as described above.
Fractions were analyzed for their ability to inhibit the FGFR3 activity-dependent growth of human myeloma cell line KMS-11 as described above in Example 3.

FGFR3^ACH/ACH mice = assay: treatment of achondroplasia mice; assay type: in vivo; details: 0.09 mg/g/mouse for 7 weeks from 7 days of age
Method: Femurs of mice were dissected and the flesh was removed. The lengths of the femurs were measured using a millimetre-scale calliper ruler.
(§1) FGFR3^ACH/ACH mice beginning at 7 days of age were treated once-daily with 0.2 mg/g/mouse plant active fractions F4 and F4-IS11 by gavage in 200 μl PBS for 4 or 7 weeks. Control wild type littermates (WT) and FGFR3^ACH/ACH mice were treated with vehicle control. In additional studies, mice were treated with 0.09 mg/g/mouse purified Pa or vehicle control in a similar manner. Body weight and body length were measured weekly.
Skeletons were analyzed by […] (Skyscan 1076 system, Bruker, Brussels, Belgium) as described above.

WT mice = assay: treatment of wild-type mice with Pa; assay type: in vivo; details: 0.09 mg/g/mouse for 7 weeks from 7 days of age
Method: as §1
As mentioned above, Pa was identified as an active compound in the A. viridis extract by means of the method set forth above in Example 4. WT and FGFR3^ACH mice at 7 days of age were treated with vehicle (DMSO) or with 0.09 mg/g/mouse Pa for 7 weeks. The body weight of treated mice was measured weekly.

TDI FGFR3 [3] = target: T1, TDI FGFR3
Method: as §2, §3, §4

Molecule	inhibition of FGFR3 activation (in words) (TDI FGFR3 [1])	also measured
NCC(=O)CCC(=O)O [5-aminolevulinic acid, reference compound]	did not	
Na-pheophorbide a [NA-Pa]	comparable FGFR3 inhibition activities	solubility as compared to Pa [2]: enhanced solubility
chlorophyllin A [reference compound]	had FGFR3 inhibition activity	
pheophorbide a [Pa]	inhibit FGFR3 activation	inhibition of KMS-11 cell proliferation (KMS-11 cells): inhibited FGFR3-dependent cell proliferation; body weight vs DMSO-treated mice (FGFR3^ACH/ACH mice): increased body weight; body weight vs DMSO-treated mice (WT mice): increased body weight
HCl-N-pheophorbide a [HCl-N-Pa]	comparable FGFR3 inhibition activities	solubility as compared to Pa [2]: enhanced solubility
Oc1cccc(-c2c3nc(c(-c4cccc(O)c4)c4ccc([nH]4)c(-c4cccc(O)c4)c4nc(c(-c5cccc(O)c5)c5ccc2[nH]5)CC4)C=C3)c1 [temoporfin]		inhibition of FGFR3 activation (in words) (TDI FGFR3 [3]): had FGFR3 inhibition activity
Pyropheophorbide a [PyroPa]	inhibit FGFR3 activation; also recorded: stronger than any of the tested photosensitizers	
pyropheophorbide-a methyl ester [reference compound]	had FGFR3 inhibition activity	
CO[C@@H]1[C@H](N(C)C(=O)c2ccccc2)C[C@H]2O[C@]1(C)n1c3ccccc3c3c4c(c5c6ccccc6n2c5c31)C(=O)NC4 [PKC412, reference compound]		time to disappearance of punctate GFP signals after treatment (TDI FGFR3 [1]; SH2(SH2B)-RrGFP and TDI FGFR3 expressing cells, not seen with DMSO): ≤ 1 h
